Patent US6596772B1, “Phosphate mimics and methods of treatment using phosphatase inhibitors” (Sugen, Inc., priority 1999, dated 2003)

Legend:
Test in all cases: PTP IC50 assay, fluorescent substrate DiFMUP
Type in all cases: biochemical
[1] = molecular target: T1, PTP 1B (Homo sapiens, UniProt P18031); settings: DiFMUP as substrate, 25° C.; read-out: PTP IC50 1B
T1 construct: made in house; host or cells: Sf-9 insect cells (pFastBac-G2T)
T1 sequence (P18031 1-435): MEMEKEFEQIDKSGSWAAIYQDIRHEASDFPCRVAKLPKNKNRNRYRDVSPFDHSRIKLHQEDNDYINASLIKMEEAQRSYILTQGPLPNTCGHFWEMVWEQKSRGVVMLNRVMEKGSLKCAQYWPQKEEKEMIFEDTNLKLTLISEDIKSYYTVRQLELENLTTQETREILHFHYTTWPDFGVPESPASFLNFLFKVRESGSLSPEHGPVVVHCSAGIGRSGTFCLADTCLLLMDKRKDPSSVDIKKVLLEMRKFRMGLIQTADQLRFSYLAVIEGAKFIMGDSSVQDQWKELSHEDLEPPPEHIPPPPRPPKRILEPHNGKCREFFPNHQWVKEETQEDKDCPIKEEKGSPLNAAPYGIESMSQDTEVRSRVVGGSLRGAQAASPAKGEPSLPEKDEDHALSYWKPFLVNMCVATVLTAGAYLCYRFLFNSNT
Excerpt: The PTP1b cDNA was amplified from human placenta single strand cDNA (Clontech RNA) using the following oligonucleotides: 5′oligo: 5′-[…] (SEQ ID NO: 4) 3′oligo: 5′-[…] (SEQ ID NO: 5) It was subsequently ligated into pFasBac G2TBamH1Xba-1 sites.
(§1) The following in vitro assay procedure is preferred to determine the level of activity and effect of the different compounds of the present invention on one or more of the PTPs. Similar assays can be designed along the same lines for any PTP using techniques well known in the art.
(§2) The catalytic assays described herein are performed in a 96-well format. The general procedure begins with the determination of PTP optimal pH using a three-component buffer system that minimizes ionic strength variations across a wide range of buffer pH. Next, the Michaelis-Menten constant, or Km, is determined for the substrate 6,8-difluoro-4-methylumbelliferyl phosphate (DiFMUP). This Km value is subsequently used as the substrate reaction concentration for compound screening. Finally, the test PTP is exposed to varying concentrations of compound for fifteen minutes and allowed to react with substrate for ten minutes. The results are plotted as percent inhibition versus compound concentration and the IC50 interpolated from the plot.
(§3) All assays were performed using DiFMUP as substrate. The optimum pH and substrate Km was determined for each PTP used.
(§4) PTPase activity was assayed at 25° C. in a 100-μl reaction mixture containing an appropriate concentration of DiFMUP as substrate. The reaction was initiated by addition of the purified PTP and quenched after 10 min by addition of 1% H2O2/100 mM NaCl. The non-enzymatic hydrolysis of the substrate was corrected by measuring the control without the addition of the enzyme. The amount of DiFMU produced was determined from the increase in the fluorescence (360 nm excitation/460 nm emission) over that of background in the absence of PTPase. To determine the kinetic parameter, Km, the initial velocities were measured at various substrate concentrations and the data were fitted to the Michaelis equation where velocity=(Vmax*[S])/(Km+[S]), and [S]=substrate reaction concentration.
(§5) The effect of the compounds on PTP was evaluated at 25° C. using DiFMUP as substrate. PTP was pre-incubated for fifteen minutes with various concentrations of compound. Substrate was then added at a fixed concentration (usually equal to the Km previously calculated). After 10 minutes, the reaction was quenched. The hydrolysis of DiFMUP was followed as described above. The percent inhibition was calculated as follows: Percent Inhibition=[(control signal−compound signal)/control signal]×100%. The IC50 was then determined by interpolation of a percent inhibition versus compound concentration plot.
(§6) Plasmids designed for bacterial GST-PTP fusion protein expression were derived by insertion of PCR-generated human PTP fragments into pGEX vectors (Pharmacia Biotech). Several of these constructs were then used to subclone phosphatases into pFastBac-1 for expression in Sf-9 insect cells. Oligonucleotides used for the initial amplification of PTP genes are as described above. The cDNAs were prepared using the Gilbo BRL superscript preamplification system on RNAs purchased from Clontech.

[2] = molecular target: T2, PTP EPSILON (Homo sapiens, UniProt P23469); settings: DiFMUP as substrate, 25° C.; read-out: PTP IC50 Epilson
T2 construct: made in house; host or cells: Sf-9 insect cells (pFastBac-G2T); a pGEX 6P-1 construct also existed
T2 sequence (P23469 80-393 limits assumed): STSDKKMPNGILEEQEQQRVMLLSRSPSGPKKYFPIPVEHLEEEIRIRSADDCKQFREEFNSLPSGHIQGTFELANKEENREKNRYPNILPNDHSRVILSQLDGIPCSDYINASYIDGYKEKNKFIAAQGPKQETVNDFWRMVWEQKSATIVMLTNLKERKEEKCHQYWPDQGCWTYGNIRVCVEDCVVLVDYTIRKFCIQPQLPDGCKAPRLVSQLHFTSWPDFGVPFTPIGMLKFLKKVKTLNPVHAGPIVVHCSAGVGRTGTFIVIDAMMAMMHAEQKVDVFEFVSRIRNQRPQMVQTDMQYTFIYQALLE
Excerpt: The PTPepsilon cDNA was amplified from human placenta single-strand cDNA (Clontech RNA) using the following oligonucleotides: 5′oligo: 5′-[…]-3′ (SEQ ID NO: 6) 3′oligo: 5′-[…]-3′ (SEQ ID NO: 7) After cloning this PCR product into the Bam HI/Xho I sites of pGEX 6P-1, this phosphatase was subcloned using the same restriction sites in pFastBac-G2T.
as §1, §2, §3, §4, §5, §6

[3] = molecular target: T3, PTP SHP2 (Homo sapiens, UniProt Q06124); settings: DiFMUP as substrate, 25° C.; read-out: PTP IC50 SHP2
T3 construct: The catalytic domain was amplified using the following oligonucleotides; made in house; host or cells: Sf-9 insect cells (pFastBac-G2T)
T3 sequence (Q06124 247-517 limits assumed): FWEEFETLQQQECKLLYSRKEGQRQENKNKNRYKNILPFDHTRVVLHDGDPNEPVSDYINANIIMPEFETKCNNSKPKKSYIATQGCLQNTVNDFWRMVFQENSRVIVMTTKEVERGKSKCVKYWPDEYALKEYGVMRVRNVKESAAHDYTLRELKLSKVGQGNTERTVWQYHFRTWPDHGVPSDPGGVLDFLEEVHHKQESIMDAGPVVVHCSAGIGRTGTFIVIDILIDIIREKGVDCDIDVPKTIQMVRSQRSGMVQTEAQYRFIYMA
Excerpt: SHP-2 cDNA was used as described earlier (Vogel W., et al.,1993, Science, 259:1611-4). The catalytic domain was amplified using the following oligonucleotides 5′oligo: 5′-[…]-3′ (SEQ ID NO: 2) 3′oligo: 5′-[…]-3′ (SEQ ID NO: 3) and subsequently subcloned into BamH1-Xba-1 sites. It was then ligated into pfas Bac-G2T BamH1-Xba-1 sites.
as §1, §2, §3, §4, §5, §6

Row | IC50 [1] | IC50 [2] | IC50 [3] | Compound
1 | > 100 µM | > 100 µM | > 100 µM | Cn1c(C(=O)O)cc2cc(NS(=O)(=O)C(F)(F)F)ccc21 [Example 78, 1-Methyl-5-trifluoromethanesulfonylamino-1H-indole-2-carboxylic acid]
2 | > 100 µM | > 20 µM | > 100 µM | Cc1cc2cc(NS(=O)(=O)C(F)(F)F)ccc2n1CC(=O)O [Example 79, (2-Methyl-5-trifluoromethanesulfonylamino-indol-1-yl)-acetic acid]
3 | > 20 µM | 26.9 µM | 58.1 µM | Cn1c(C(=O)Nc2ccccc2)cc2cc(NS(=O)(=O)C(F)(F)F)ccc21 [Example 80, 1-Methyl-5-trifluoromethanesulfonylamino-1H-indole-2-carboxylic acid phenylamide]
4 | 14.6 µM | 4.4 µM | 6.2 µM | O=C(Nc1ccccc1)c1cc2cc(NS(=O)(=O)C(F)(F)F)ccc2[nH]1 [Example 81, 5-Trifluoromethanesulfonylamino-1H-indole-2-carboxylic acid phenylamide]
5 | > 20 µM | 7.7 µM | 87.7 µM | Cn1c(C(=O)Nc2cccc(C(=O)O)c2)cc2cc(NS(=O)(=O)C(F)(F)F)ccc21 [Example 82, 3-[(1-Methyl-5-trifluoromethanesulfonylamino-1H-indole-2-carbonyl)-amino]-benzoic acid]
6 | > 20 µM | 8.4 µM | 58.5 µM | O=C(O)c1cccc(NC(=O)c2cc3cc(NS(=O)(=O)C(F)(F)F)ccc3[nH]2)c1 [Example 83, 3-[(5-Trifluoromethanesulfonylamino-1H-indole-2-carbonyl)-amino]-benzoic acid]
7 | > 20 µM | 16.1 µM | 62 µM | O=C(O)c1ccc(NC(=O)c2cc3cc(NS(=O)(=O)C(F)(F)F)ccc3[nH]2)cc1 [Example 84, 4-[(5-Trifluoromethanesulfonylamino-1H-indole-2-carbonyl)-amino]-benzoic acid]
8 | > 20 µM | > 20 µM | > 100 µM | Cc1cc2cc(NS(=O)(=O)C(F)(F)F)ccc2n1CC(=O)Nc1cccc(C(=O)O)c1 [Example 86, 3-[2-(2-Methyl-5-trifluoromethanesulfonylamino-indol-1-yl)-acetylamino]-benzoic acid]
9 | > 20 µM | > 20 µM | 97 µM | Cc1cc2cc(NS(=O)(=O)C(F)(F)F)ccc2n1CC(=O)NCc1ccc(C(=O)O)cc1 [Example 87, 4-{[2-(2-Methyl-5-trifluoromethanesulfonylamino-indol-1-yl)-acetylamino]-methyl}-benzoic acid]
10 | > 20 µM | 8.2 µM | 31.4 µM | Cc1cc2cc(NS(=O)(=O)C(F)(F)F)ccc2n1CC(=O)OC(C)(C)C [Example 88, (2-Methyl-5-trifluoromethanesulfonylamino-indol-1-yl)-acetic acid tert-butyl ester]
11 | > 20 µM | > 20 µM | 69 µM | CCOC(=O)c1cc2cc(NS(=O)(=O)C(F)(F)F)ccc2n1C [Example 89, 1-Methyl-5-trifluoromethanesulfonylamino-1H-indole-2-carboxylic acid ethyl ester]
12 | > 20 µM | 35.9 µM | 64 µM | O=C(O)c1ccc2cc(NS(=O)(=O)C(F)(F)F)ccc2c1 [Example 90, 6-Trifluoromethanesulfonylamino-naphthalene-2-carboxylic acid]
13 | > 20 µM | > 20 µM | 25.9 µM | O=C(O)c1ccc2cc(CN(Cc3ccc4cc(C(=O)O)ccc4c3)S(=O)(=O)C(F)(F)F)ccc2c1 [Example 91, N,N-Bis[(6-carboxyl-naphthalen-2-yl)methyl]trifluoromethanesulfonamide]
14 | > 20 µM | 5.1 µM | 48 µM | CN(Cc1ccc2cc(C(=O)O)ccc2c1)S(=O)(=O)C(F)(F)F [Example 92, 6-[(Methyl-trifluoromethanesulfonyl-amino)-methyl]-naphthalene-2-carboxylic acid]
15 | 15.9 µM | 7.4 µM | 15.8 µM | CN(Cc1ccc2cc(C(=O)Nc3cccc(C(=O)O)c3)ccc2c1)S(=O)(=O)C(F)(F)F [Example 93, 3-({6-[(Methyl-trifluoromethanesulfonyl-amino)-methyl]-naphthalene-2-carbonyl}-amino)-benzoic acid]
16 | > 100 µM | > 100 µM | > 20 µM | CCOC(=O)c1cc2cc(NS(=O)(=O)C(F)(F)F)ccc2n1CC(=O)O [Example 95, 1-Carboxymethyl-5-trifluoromethanesulfonylamino-1H-indole-2-carboxylic acid ethyl ester]
17 | 44.2 µM | 62.9 µM | 6.1 µM | O=C(O)Cn1c(C(=O)O)cc2cc(NS(=O)(=O)C(F)(F)F)ccc21 [Example 97, 1-Carboxymethyl-5-trifluoromethanesulfonylamino-1H-indole-2-carboxylic acid]
18 | > 100 µM | 41.6 µM | > 20 µM | CCOC(=O)c1cc2cc(N(S(=O)(=O)C(F)(F)F)S(=O)(=O)C(F)(F)F)ccc2n1CC(=O)O [Example 98, 1-Carboxymethyl-5-(N,N-ditrifluoromethanesulfonyl)amino-1H-indole-2-carboxylic acid ethyl ester]

Row | Compound | IC50 [1] | IC50 [2] | IC50 [3]
19 | CCOC(=O)c1cc2cc(NS(=O)(=O)C(F)(F)F)ccc2n1CC(=O)OC(C)(C)C [Example 94, 1-tert-Butoxycarbonylmethyl-5-trifluoromethanesulfonylamino-1H-indole-2-carboxylic acid ethyl ester] | 12 µM | 4.2 µM | 1.5 µM
20 | CC(C)(C)OC(=O)Cn1c(C(=O)O)cc2cc(NS(=O)(=O)C(F)(F)F)ccc21 [Example 96, 1-tert-Butoxycarbonylmethyl-5-trifluoromethanesulfonylamino-1H-indole-2-carboxylic acid] | 34.7 µM | 31.2 µM | 9.1 µM
